Measurements: paper PMC9932578 (Clinical Cancer Research, 2022)

Key:
[1] = test system: gene expression (Hallmark gene sets); experiment: RNA-seq differential expression and GSEA in bone marrow aspirates; format: in vivo, human
[2] = 60 mg QD NHL cohort, n = 1/18

In the case of `CCNC(=O)C[C@@H]1N=C(c2ccc(Cl)cc2)c2cc(OC)ccc2-n2c(C)nnc21` [molibresib], the “share of differentially expressed genes downregulated (289/398)” value ([1]; across all 13 patients) is reported as 72.6%, the “differentially expressed genes shared between NRs and responders” value ([1]; in vivo) is reported as 61 genes and the “genes with significant differential expression” value ([1]; non-responders (NR)) is reported as 884 genes. The “genes with significant differential expression” value ([1]; responders (CR + PR)) was 107 genes and the “DLT: thrombocytopenia” value [2] was 6%.
